Columns and labels:
[1] = tested on: DU145; settings: DU145 cell line; cited from earlier work
[2] = molecular target: T1, FLT3 (Homo sapiens, UniProt P36888); settings: in vitro; cited from earlier work
T1 sequence (P36888 27-993): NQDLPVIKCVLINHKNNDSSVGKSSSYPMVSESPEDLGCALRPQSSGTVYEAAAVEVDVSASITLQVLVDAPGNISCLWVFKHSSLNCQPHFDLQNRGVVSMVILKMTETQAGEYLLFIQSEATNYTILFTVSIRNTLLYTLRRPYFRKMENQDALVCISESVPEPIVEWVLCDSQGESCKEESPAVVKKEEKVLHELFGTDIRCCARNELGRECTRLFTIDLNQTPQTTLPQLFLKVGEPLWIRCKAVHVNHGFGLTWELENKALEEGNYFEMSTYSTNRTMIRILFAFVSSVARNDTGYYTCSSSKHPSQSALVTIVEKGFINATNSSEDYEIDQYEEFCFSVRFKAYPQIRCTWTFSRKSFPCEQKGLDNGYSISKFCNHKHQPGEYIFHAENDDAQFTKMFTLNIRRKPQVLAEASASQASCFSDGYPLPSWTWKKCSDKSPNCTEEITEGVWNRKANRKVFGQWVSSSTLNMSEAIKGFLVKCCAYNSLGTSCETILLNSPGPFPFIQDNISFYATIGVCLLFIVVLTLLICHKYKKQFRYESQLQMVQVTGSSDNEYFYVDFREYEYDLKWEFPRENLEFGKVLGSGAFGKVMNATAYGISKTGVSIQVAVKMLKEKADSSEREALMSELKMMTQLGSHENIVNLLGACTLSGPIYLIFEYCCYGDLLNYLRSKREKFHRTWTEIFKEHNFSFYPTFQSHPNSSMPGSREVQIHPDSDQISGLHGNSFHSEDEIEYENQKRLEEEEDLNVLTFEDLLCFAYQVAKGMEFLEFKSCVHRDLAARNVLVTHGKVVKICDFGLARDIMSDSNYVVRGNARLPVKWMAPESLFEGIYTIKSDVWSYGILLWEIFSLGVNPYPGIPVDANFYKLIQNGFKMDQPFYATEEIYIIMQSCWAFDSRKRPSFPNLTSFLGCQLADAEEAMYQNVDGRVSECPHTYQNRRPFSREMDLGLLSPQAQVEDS

[3] = Log P determination by potentiometric titration; assay type: physicochemical
From the text: Data were collected by potentiometric titration on a Sirius GlpKa instrument using three ratios of octanol:ionic-strength adjusted (ISA) water to generate Log P, Log Pion, and Log D values. The data were refined using Refinement Pro software v2.2. Prediction of Log P values was made using ACD v12 software.

[4] = tested on: HEL92.1.7; settings: HEL92.1.7 cell line; cited from earlier work
[5] = Gravimetric Vapour Sorption (GVS) at 25° C.; assay type: physicochemical
Protocol: Sorption isotherms were obtained using a SMS DVS Intrinsic moisture sorption analyser, controlled by SMS Analysis Suite software. The sample temperature was maintained at 25° C. by the instrument controls. The humidity was controlled by mixing streams of dry and wet nitrogen, with a total flow rate of 200 ml.min^−1. The relative humidity was measured by a calibrated Rotronic probe (dynamic range of 1.0-100% RH), located near the sample. The weight change, (mass relaxation) of the sample as a function of % RH was constantly monitored by the microbalance (accuracy ±0.005 mg). Typically 5-20 mg of sample was placed in a tared mesh stainless steel basket under ambient conditions. The sample was loaded and unloaded at 40% RH and 25° C. (typical room conditions). A moisture sorption isotherm was performed as outlined below (2 scans giving 1 complete cycle). The standard isotherm was performed at 25° C. at 10% RH intervals over a 0.5-90% RH range. The sample was recovered after completion of the isotherm and re-analysed by XRPD.

[6] = Thermodynamic aqueous solubility; assay type: physicochemical
Protocol: Aqueous solubility was determined by suspending sufficient compound in water to give a maximum final concentration of 210 mg·ml^−1 of the parent free-form of the compound. The suspension was equilibrated at 25° C. for 24 hours then the pH was measured. The suspension was then filtered through a glass fibre C filter into a 96 well plate. The filtrate was then diluted by a factor of 101. Quantitation was by HPLC with reference to a standard solution of approximately 0.1 mg·ml^−1. in DMSO. Different volumes of the standard, diluted and undiluted sample solutions were injected. The solubility was calculated using the peak areas determined by integration of the peak found at the same retention time as the principal peak in the standard injection.
Analysis was performed on an Agilent HP1 100 series system equipped with a diode array detector and using ChemStation software vB.02.01-SR1.

[7] = tested on: Colo205; settings: Colo205 cell line; cited from earlier work
[8] = molecular target: JAK2 (Homo sapiens, UniProt O60674); settings: in vitro; cited from earlier work
JAK2, sequence (O60674 whole entry): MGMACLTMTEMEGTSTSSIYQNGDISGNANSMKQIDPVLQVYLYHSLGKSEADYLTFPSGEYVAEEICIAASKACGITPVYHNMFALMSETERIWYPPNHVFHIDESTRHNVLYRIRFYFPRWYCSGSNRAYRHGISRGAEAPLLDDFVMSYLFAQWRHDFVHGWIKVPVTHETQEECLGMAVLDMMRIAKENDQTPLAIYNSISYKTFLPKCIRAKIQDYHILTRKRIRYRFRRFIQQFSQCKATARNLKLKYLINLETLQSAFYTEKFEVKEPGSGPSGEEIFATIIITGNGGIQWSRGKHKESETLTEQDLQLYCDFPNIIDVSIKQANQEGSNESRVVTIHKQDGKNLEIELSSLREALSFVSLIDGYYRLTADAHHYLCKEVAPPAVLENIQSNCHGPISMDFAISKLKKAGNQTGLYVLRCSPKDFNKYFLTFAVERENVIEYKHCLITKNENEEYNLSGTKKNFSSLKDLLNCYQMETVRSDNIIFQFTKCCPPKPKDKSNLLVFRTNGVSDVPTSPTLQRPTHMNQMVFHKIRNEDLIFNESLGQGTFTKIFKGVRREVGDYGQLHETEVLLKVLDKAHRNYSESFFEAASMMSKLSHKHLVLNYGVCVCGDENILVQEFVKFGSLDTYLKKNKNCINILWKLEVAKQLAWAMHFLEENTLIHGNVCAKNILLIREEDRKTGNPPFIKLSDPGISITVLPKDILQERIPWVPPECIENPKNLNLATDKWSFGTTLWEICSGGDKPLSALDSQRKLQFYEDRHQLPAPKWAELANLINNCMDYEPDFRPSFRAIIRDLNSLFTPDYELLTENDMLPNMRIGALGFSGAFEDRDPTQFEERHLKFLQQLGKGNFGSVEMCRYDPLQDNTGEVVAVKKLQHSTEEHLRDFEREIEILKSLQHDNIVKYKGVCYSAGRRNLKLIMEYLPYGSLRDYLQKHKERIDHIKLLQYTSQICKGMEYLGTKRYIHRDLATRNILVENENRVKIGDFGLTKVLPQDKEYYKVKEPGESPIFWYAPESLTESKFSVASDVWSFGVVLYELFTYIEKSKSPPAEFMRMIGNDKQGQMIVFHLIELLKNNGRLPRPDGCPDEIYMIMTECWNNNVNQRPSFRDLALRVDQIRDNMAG

[9] = Stability in humidity chamber 40° C./75% R.H. (XRPD, HPLC); assay type: physicochemical
Protocol: After 2 days, the solids were isolated by filtration under vacuum at RT to be characterised by XRPD analysis. Each new crystalline solid phase detected was characterised by ^1H NMR and TGA-DSC analyses in order to determine if salt formation had occurred and whether the material was a solvate. At this stage, each salt identified was then analysed by HPLC to determine the chemical purity prior to being stored in the humidity chamber (40° C./75% R.H.) to assess its stability.

[10] = molecular target: JAK V617F (Homo sapiens, UniProt O60674, V617F); settings: in vitro; cited from earlier work
JAK V617F, sequence (O60674 whole entry V617F): as the sequence (O60674 whole entry) above, with V617F counted along it

[11] = tested on: HL60; settings: HL60 cell line; cited from earlier work
[12] = tested on: MV4-11; settings: MV4-11 cell line; cited from earlier work

logD ([3]; octanol/ionic-strength adjusted (ISA) water, pH 7.4, read-out: Measured LogD7.4): 3.34 | logP ([3]; octanol/ionic-strength adjusted (ISA) water, octanol:ISA water, read-out: Measured LogP): 4.72 | Measured LogPion ([3]; octanol:ISA water): 1.14 | changes in the XRPD pattern after the GVS experiment [5]: between 0 and 90% relative humidity. No | hydration phenomenon in GVS [5]: GVS analysis was carried out at 25 °C No | solubility at 24 h ([6]; 25 °C, thermodynamic from solid, water): < 1 µg/mL | final pH ([6]; pH of the aqueous suspension after equilibration): 8.9 | aqueous solubility ([6]; water, 25° C., 24 hours): < 1 µg/mL | XRPD stability (40° C./75% R.H.) ([9]; 6 weeks): No changes were observed in the humidity
Compound: CN1C/C=C/CCOc2cccc(c2)-c2ccnc(n2)Nc2cccc(c2)C1 [Compound I, 14-methyl-20-oxa-5,7,14,27-tetraazatetracyclo-[19.3.1.12,6.18,12]heptacosa-1(25),2,4,6,8,10,12(26),16,21,23-decaene]
GI50 [1]: < 1000 nM | IC50 [2]: < 1000 nM | GI50 [4]: < 1000 nM | GI50 [7]: < 1000 nM | IC50 [8]: < 1000 nM | HPLC Purity post stability (40° C./75% R.H.) ([9]; after 6 weeks in the humidity chamber): purity of Compound I was measured at 97.0% area | IC50 [10]: < 1000 nM | GI50 [11]: < 1000 nM | GI50 [12]: < 1000 nM

Source: patent US9120815B2, “Solid state forms of macrocyclic kinase inhibitors” (Tragara Pharmaceuticals, Inc., priority 2010, dated 2015)
